Measurements taken from ChEMBL document CHEMBL3045245, “Synthesis and antitumor activities of certain novel 2-amino-9-(4-halostyryl)-4H-pyrano[3,2-h]quinoline derivatives” (Med Chem Res, 2012).
In brackets after ≈: the same amount, converted by molar mass.

System: HepG2
Assay: Cytotoxicity against Homo sapiens (human) HepG2 cells after 48 hr by MTT assay
Format: functional, cell-based
Conditions: HepG2, 48 h

`N#CC1=C(N)Oc2c(ccc3ccc(/C=C/c4ccc(F)cc4)nc23)C1c1ccc(Cl)cc1` (configuration not stated) and `N#CC1=C(N)Oc2c(ccc3ccc(/C=C/c4ccc(F)cc4)nc23)C1c1ccc(Br)cc1` (configuration not stated) cannot be ordered by IC50: > 50 µg/mL for the first, > 50 µg/mL for the second.

System: HepG2
Assay: Cytotoxicity against Homo sapiens (human) HepG2 cells assessed as cell viability at 1.56 ug/ml after 48 hr by MTT assay
Format: functional
Conditions: HepG2, 48 h, read-out: Activity

`N#CC1=C(N)Oc2c(ccc3ccc(/C=C/c4ccc(F)cc4)nc23)C1c1ccc(Cl)cc1` (configuration not stated) and `N#CC1=C(N)Oc2c(ccc3ccc(/C=C/c4ccc(F)cc4)nc23)C1c1ccc(Br)cc1` (configuration not stated) are the same in viability at 1.56 µg/mL: 100% for the first, 100% for the second.

System: HepG2
Assay: Cytotoxicity against Homo sapiens (human) HepG2 cells assessed as cell viability at 6.25 ug/ml after 48 hr by MTT assay
Format: functional
Conditions: HepG2, 48 h, read-out: Activity

Compared with `N#CC1=C(N)Oc2c(ccc3ccc(/C=C/c4ccc(F)cc4)nc23)C1c1ccc(Cl)cc1` (configuration not stated), `N#CC1=C(N)Oc2c(ccc3ccc(/C=C/c4ccc(F)cc4)nc23)C1c1ccc(Br)cc1` (configuration not stated) is higher in viability at 6.25 µg/mL: 96.2% for the first, 97.2% for the second.

System: HepG2
Assay: Cytotoxicity against Homo sapiens (human) HepG2 cells assessed as cell viability at 3.125 ug/ml after 48 hr by MTT assay
Format: functional
Conditions: HepG2, 48 h, read-out: Activity

`N#CC1=C(N)Oc2c(ccc3ccc(/C=C/c4ccc(F)cc4)nc23)C1c1ccc(Cl)cc1` (configuration not stated) and `N#CC1=C(N)Oc2c(ccc3ccc(/C=C/c4ccc(F)cc4)nc23)C1c1ccc(Br)cc1` (configuration not stated) are the same in viability at 3.125 µg/mL: 98.9% for the first, 98.9% for the second.

System: HepG2
Assay: Cytotoxicity against Homo sapiens (human) HepG2 cells assessed as cell viability at 25 ug/ml after 48 hr by MTT assay
Format: functional
Conditions: HepG2, 48 h, read-out: Activity

Compared with `N#CC1=C(N)Oc2c(ccc3ccc(/C=C/c4ccc(F)cc4)nc23)C1c1ccc(Cl)cc1` (configuration not stated), `N#CC1=C(N)Oc2c(ccc3ccc(/C=C/c4ccc(F)cc4)nc23)C1c1ccc(Br)cc1` (configuration not stated) is lower in viability at 25 µg/mL: 78.3% for the first, 74.8% for the second.

System: HepG2
Assay: Cytotoxicity against Homo sapiens (human) HepG2 cells assessed as cell viability at 12.5 ug/ml after 48 hr by MTT assay
Format: functional
Conditions: HepG2, 48 h, read-out: Activity

Compared with `N#CC1=C(N)Oc2c(ccc3ccc(/C=C/c4ccc(F)cc4)nc23)C1c1ccc(Cl)cc1` (configuration not stated), `N#CC1=C(N)Oc2c(ccc3ccc(/C=C/c4ccc(F)cc4)nc23)C1c1ccc(Br)cc1` (configuration not stated) is lower in viability at 12.5 µg/mL: 84.6% for the first, 83.4% for the second.

System: not listed separately
Assay: Cytotoxicity against Homo sapiens (human) HCT cells after 48 hr by MTT assay
Format: functional, cell-based
Conditions: not given

First: N#CC1=C(N)Oc2c(ccc3ccc(/C=C/c4ccc(F)cc4)nc23)C1c1ccc(Cl)cc1 (configuration not stated)
Second: N#CC1=C(N)Oc2c(ccc3ccc(/C=C/c4ccc(F)cc4)nc23)C1c1ccc(Br)cc1 (configuration not stated)
The IC50 of the first is lower: 43.8 µg/mL (≈ 96.5 µM) for the first, > 50 µg/mL for the second.

System: HepG2
Assay: Cytotoxicity against Homo sapiens (human) HepG2 cells assessed as cell viability at 50 ug/ml after 48 hr by MTT assay
Format: functional
Conditions: HepG2, 48 h, read-out: Activity

Going from `N#CC1=C(N)Oc2c(ccc3ccc(/C=C/c4ccc(F)cc4)nc23)C1c1ccc(Cl)cc1` (configuration not stated) to `N#CC1=C(N)Oc2c(ccc3ccc(/C=C/c4ccc(F)cc4)nc23)C1c1ccc(Br)cc1` (configuration not stated), the viability at 50 µg/mL rises from 56.4% to 63.4%.

System: not listed separately
Assay: Cytotoxicity against Homo sapiens (human) HCT cells assessed as cell viability at 1.56 ug/ml after 48 hr by MTT assay
Format: functional
Conditions: read-out: Activity

`N#CC1=C(N)Oc2c(ccc3ccc(/C=C/c4ccc(F)cc4)nc23)C1c1ccc(Cl)cc1` (configuration not stated) and `N#CC1=C(N)Oc2c(ccc3ccc(/C=C/c4ccc(F)cc4)nc23)C1c1ccc(Br)cc1` (configuration not stated) are the same in viability at 1.56 µg/mL: 100% for the first, 100% for the second.

System: not listed separately
Assay: Cytotoxicity against Homo sapiens (human) HCT cells assessed as cell viability at 3.125 ug/ml after 48 hr by MTT assay
Format: functional
Conditions: read-out: Activity

Going from `N#CC1=C(N)Oc2c(ccc3ccc(/C=C/c4ccc(F)cc4)nc23)C1c1ccc(Cl)cc1` (configuration not stated) to `N#CC1=C(N)Oc2c(ccc3ccc(/C=C/c4ccc(F)cc4)nc23)C1c1ccc(Br)cc1` (configuration not stated), the viability at 3.125 µg/mL falls from 98.8% to 98.6%.

System: not listed separately
Assay: Cytotoxicity against Homo sapiens (human) HCT cells assessed as cell viability at 6.25 ug/ml after 48 hr by MTT assay
Format: functional
Conditions: read-out: Activity

Going from `N#CC1=C(N)Oc2c(ccc3ccc(/C=C/c4ccc(F)cc4)nc23)C1c1ccc(Cl)cc1` (configuration not stated) to `N#CC1=C(N)Oc2c(ccc3ccc(/C=C/c4ccc(F)cc4)nc23)C1c1ccc(Br)cc1` (configuration not stated), the viability at 6.25 µg/mL falls from 95.2% to 94.8%.

System: not listed separately
Assay: Cytotoxicity against Homo sapiens (human) HCT cells assessed as cell viability at 12.5 ug/ml after 48 hr by MTT assay
Format: functional
Conditions: read-out: Activity

Going from `N#CC1=C(N)Oc2c(ccc3ccc(/C=C/c4ccc(F)cc4)nc23)C1c1ccc(Cl)cc1` (configuration not stated) to `N#CC1=C(N)Oc2c(ccc3ccc(/C=C/c4ccc(F)cc4)nc23)C1c1ccc(Br)cc1` (configuration not stated), the viability at 12.5 µg/mL rises from 86.9% to 91.1%.

System: not listed separately
Assay: Cytotoxicity against Homo sapiens (human) HCT cells assessed as cell viability at 25 ug/ml after 48 hr by MTT assay
Format: functional
Conditions: read-out: Activity

Going from `N#CC1=C(N)Oc2c(ccc3ccc(/C=C/c4ccc(F)cc4)nc23)C1c1ccc(Cl)cc1` (configuration not stated) to `N#CC1=C(N)Oc2c(ccc3ccc(/C=C/c4ccc(F)cc4)nc23)C1c1ccc(Br)cc1` (configuration not stated), the viability at 25 µg/mL rises from 62.5% to 83.4%.

System: not listed separately
Assay: Cytotoxicity against Homo sapiens (human) HCT cells assessed as cell viability at 50 ug/ml after 48 hr by MTT assay
Format: functional
Conditions: read-out: Activity

Compared with `N#CC1=C(N)Oc2c(ccc3ccc(/C=C/c4ccc(F)cc4)nc23)C1c1ccc(Cl)cc1` (configuration not stated), `N#CC1=C(N)Oc2c(ccc3ccc(/C=C/c4ccc(F)cc4)nc23)C1c1ccc(Br)cc1` (configuration not stated) is higher in viability at 50 µg/mL: 41.3% for the first, 57.6% for the second.

System: MCF7
Assay: Cytotoxicity against Homo sapiens (human) MCF7 cells after 48 hr by MTT assay
Format: functional, cell-based
Conditions: MCF7, 48 h

`N#CC1=C(N)Oc2c(ccc3ccc(/C=C/c4ccc(F)cc4)nc23)C1c1ccc(Cl)cc1` (configuration not stated) and `N#CC1=C(N)Oc2c(ccc3ccc(/C=C/c4ccc(F)cc4)nc23)C1c1ccc(Br)cc1` (configuration not stated) are within 1.5-fold of each other in IC50: 38.6 µg/mL (≈ 85 µM) for the first, 42.5 µg/mL (≈ 85.3 µM) for the second.

System: MCF7
Assay: Cytotoxicity against Homo sapiens (human) MCF7 cells assessed as cell viability at 1.56 ug/ml after 48 hr by MTT assay
Format: functional
Conditions: MCF7, 48 h, read-out: Activity

Going from `N#CC1=C(N)Oc2c(ccc3ccc(/C=C/c4ccc(F)cc4)nc23)C1c1ccc(Cl)cc1` (configuration not stated) to `N#CC1=C(N)Oc2c(ccc3ccc(/C=C/c4ccc(F)cc4)nc23)C1c1ccc(Br)cc1` (configuration not stated), the viability at 1.56 µg/mL rises from 99.3% to 100%.

System: MCF7
Assay: Cytotoxicity against Homo sapiens (human) MCF7 cells assessed as cell viability at 3.125 ug/ml after 48 hr by MTT assay
Format: functional
Conditions: MCF7, 48 h, read-out: Activity

First: N#CC1=C(N)Oc2c(ccc3ccc(/C=C/c4ccc(F)cc4)nc23)C1c1ccc(Cl)cc1 (configuration not stated)
Second: N#CC1=C(N)Oc2c(ccc3ccc(/C=C/c4ccc(F)cc4)nc23)C1c1ccc(Br)cc1 (configuration not stated)
The viability at 3.125 µg/mL of the first is higher: 97.9% for the first, 96.9% for the second.

System: MCF7
Assay: Cytotoxicity against Homo sapiens (human) MCF7 cells assessed as cell viability at 6.25 ug/ml after 48 hr by MTT assay
Format: functional
Conditions: MCF7, 48 h, read-out: Activity

`N#CC1=C(N)Oc2c(ccc3ccc(/C=C/c4ccc(F)cc4)nc23)C1c1ccc(Cl)cc1` (configuration not stated) and `N#CC1=C(N)Oc2c(ccc3ccc(/C=C/c4ccc(F)cc4)nc23)C1c1ccc(Br)cc1` (configuration not stated) are the same in viability at 6.25 µg/mL: 91.8% for the first, 91.8% for the second.

System: MCF7
Assay: Cytotoxicity against Homo sapiens (human) MCF7 cells assessed as cell viability at 12.5 ug/ml after 48 hr by MTT assay
Format: functional
Conditions: MCF7, 48 h, read-out: Activity

First: N#CC1=C(N)Oc2c(ccc3ccc(/C=C/c4ccc(F)cc4)nc23)C1c1ccc(Cl)cc1 (configuration not stated)
Second: N#CC1=C(N)Oc2c(ccc3ccc(/C=C/c4ccc(F)cc4)nc23)C1c1ccc(Br)cc1 (configuration not stated)
The viability at 12.5 µg/mL of the first is higher: 86.7% for the first, 80.2% for the second.

System: MCF7
Assay: Cytotoxicity against Homo sapiens (human) MCF7 cells assessed as cell viability at 25 ug/ml after 48 hr by MTT assay
Format: functional
Conditions: MCF7, 48 h, read-out: Activity

Going from `N#CC1=C(N)Oc2c(ccc3ccc(/C=C/c4ccc(F)cc4)nc23)C1c1ccc(Cl)cc1` (configuration not stated) to `N#CC1=C(N)Oc2c(ccc3ccc(/C=C/c4ccc(F)cc4)nc23)C1c1ccc(Br)cc1` (configuration not stated), the viability at 25 µg/mL falls from 79.4% to 67.8%.

System: MCF7
Assay: Cytotoxicity against Homo sapiens (human) MCF7 cells assessed as cell viability at 50 ug/ml after 48 hr by MTT assay
Format: functional
Conditions: MCF7, 48 h, read-out: Activity

Compared with `N#CC1=C(N)Oc2c(ccc3ccc(/C=C/c4ccc(F)cc4)nc23)C1c1ccc(Cl)cc1` (configuration not stated), `N#CC1=C(N)Oc2c(ccc3ccc(/C=C/c4ccc(F)cc4)nc23)C1c1ccc(Br)cc1` (configuration not stated) is higher in viability at 50 µg/mL: 28.5% for the first, 39.5% for the second.
